Molecular target: T1, α1-microglobulin (A1M) (Homo sapiens, UniProt P02760)
T1 construct: gene AMBP; Recombinant human A1M with an N-terminal His8-tag (tgA1M)
T1 sequence (P02760 20-203): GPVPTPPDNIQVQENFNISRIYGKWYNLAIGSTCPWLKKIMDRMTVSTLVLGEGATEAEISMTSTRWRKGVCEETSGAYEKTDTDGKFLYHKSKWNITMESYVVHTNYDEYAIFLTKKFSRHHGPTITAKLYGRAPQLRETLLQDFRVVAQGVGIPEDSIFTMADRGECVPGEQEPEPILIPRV
Assay: SPR (tgA1M captured by anti-His antibody, […] binding model); also UV/Vis titration, induced CD, native PAGE shift

Work on `C=CC1=C(C)C2=Cc3c(C=C)c(C)c4[n]3[Fe][n]3c(c(C)c(CCC(=O)O)c3=CC3=NC(=C4)C(C)=C3CCC(=O)O)=CC1=N2` [heme] yielded a Kd of 7.02 µM.

From PMC4255499 (Frontiers in Physiology, 2014)
